Molecular target: T1, MBP-HTT(1-89)Q46-His(6×) (“Exon1-Q46”) protein aggregates (Homo sapiens, UniProt P42858, INS38QQQQQQQQQQQQQQQQQQQQQQQQQ)
T1 construct: MBP-HTT(1-89)Q46-His(6×); His(6×) (C); made in house
Assay: Exon1-Q46 Radioligand Binding Assay
Details: displacement of 0.3 nM ligand [3H3-methyl]-5-((5-methoxypyridin-2-yl)methoxy)-2-(pyrazin-2-yl)benzo[d]oxazole from 1 μM aggregated Exon1-Q46 protein; 60 minutes at 37° C.; read-out: Classified Potency
Description: Exon1-Q46 Radioligand Binding Assay
For radioligand binding assays (RBA) MBP-HTT(1-89)Q46-His(6×) (“Exon1-Q46”) protein was generated based on a previous publication (Scherzinger et al. Cell, Vol. 90, 549-558, Aug. 8, 1997). For experiments, 30 pM MBP-Exon1-Q46 was incubated with 150 μg/mL thrombin in assay buffer (150 mM NaCl, 50 mM Tris pH 8.0) and 2 mM CaCl2 for 16 hours at 37° C. Aggregated Exon1-Q46 was pelleted by centrifugation for 5 minutes at 13,000 rpm in a bench top centrifuge and re-dissolved in the same volume of assay buffer. Test compounds were prepared by titration in DMSO at 11 concentrations from 63 μM to 2 nM. For the RBA, Q46 protein aggregates and test compounds were pre-incubated in assay buffer for 20 minutes at room temperature, in 100 μL/well in a 96-well plate (pp, round bottom). Then, ligand was added in 50 μL/well and incubated for 60 minutes at 37° C. Final assay concentrations were 1 μM to 30 pM test compound, 1 μM Exon1-Q46 protein (equivalent monomer concentration) and 0.3 nM ligand [^3H3-methyl]-5-((5-methoxypyridin-2-yl)methoxy)-2-(pyrazin-2-yl)benzo[d]oxazole. Samples were transferred onto GF/B filter plates and washed 2× with 200 μL PBS using a Filtermate Harvester. After drying filter plates for 1 hour at 55° C., the back of the plates were sealed with foil and 30 μL/well scintillation fluid (Packard MicroScint 40) added, incubated for 15 minutes in the dark and counted in a MicroBeta reader. For analysis, replicate data from independent assay plates were normalized towards 0% and 100% inhibition using control wells of vehicle (0% inhibition) and 1 μM unlabeled [^3H3-methyl]-5-((5-methoxypyridin-2-yl)methoxy)-2-(pyrazin-2-yl)benzo[d]oxazole (100% inhibition). IC50 values were determined with a sigmoidal inhibition model with four variables (top, bottom, slope, IC50) in a global fit using the normalized replicate data.
The results for various example compounds were as provided in the table below (+++<100 nM; ++100-500; +500-10000; ND: not determined): […]

T1 sequence (P42858 with tags, fused parts or gaps with the stated changes limits assumed): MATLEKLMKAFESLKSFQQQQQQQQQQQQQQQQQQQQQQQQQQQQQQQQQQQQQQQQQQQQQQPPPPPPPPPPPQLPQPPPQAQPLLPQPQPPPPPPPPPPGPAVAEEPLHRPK

Row | IC50 [nM] | SMILES
1 | < 100 | COc1cc(C#N)cc(-c2cc(C(=O)Nc3ccc(=O)n(C)n3)ncn2)c1 [Example 19]
2 | < 100 | COc1cncc(NC(=O)c2cc(-c3cccc(Cl)c3)ncn2)c1 [Example 3]
3 | < 100 | COc1ncc(NC(=O)c2cc(-c3cc(F)cc(Cl)c3)ncn2)cn1 [Example 28]
4 | < 100 | COc1cc(-c2cc(C(=O)NCc3nccc(=O)n3C)ncn2)ccc1F [Example 29, 6-(4-Fluoro-3-methoxyphenyl)-N-((1-methyl-6-oxo-1,6-dihydropyrimidin-2-yl)methyl)pyrimidine-4-carboxamide]
5 | < 100 | Cn1nc(NC(=O)c2cc(-c3cc(F)cc(C#N)c3)ncn2)ccc1=O [Example 20]
6 | < 100 | COc1ccc(-c2cc(C(=O)Nc3ccc(=O)n(C)n3)ncn2)cc1Cl [Example 8, 6-(3-Chloro-4-methoxyphenyl)-N-(1-methyl-6-oxo-1,6-dihydropyridazin-3-yl)pyrimidine-4-carboxamide]
7 | < 100 | COc1ccc(-c2cc(C(=O)NCc3nccc(=O)n3C)ncn2)cc1Cl [Example 30]
8 | < 100 | COc1cc(-c2cc(C(=O)Nc3ccc(=O)n(C)n3)ncn2)ccc1F [Example 10]
9 | < 100 | COc1cc(-c2cc(C(=O)Nc3cncc(OC)c3C)ncn2)ccn1 [Example 5]
10 | < 100 | COc1ccnc(CNC(=O)c2cc(-c3ccc(F)c(OC)c3)ncn2)n1 [Example 16]
11 | < 100 | COc1ccnc(CNC(=O)c2cc(-c3cnc(OC)c(Cl)c3)ncn2)n1 [Example 34, 6-(5-chloro-6-methoxypyridin-3-yl)-N-((4-methoxypyrimidin-2-yl)methyl)pyrimidine-4-carboxamide]
12 | < 100 | O=C(c1cc(-c2cccc(Cl)c2)ncn1)N1CCc2ccccc21 [Example 2]
13 | < 100 | COc1cc(-c2cc(C(=O)N3Cc4cccnc4C3)ncn2)ccn1 [Example 14]
14 | < 100 | COc1ccc(CNC(=O)c2cc(-c3ccc(F)c(OC)c3)ncn2)nc1 [Example 13]
15 | < 100 | Cn1nc(NC(=O)c2cc(-c3ccc(F)c(Cl)c3)ncn2)ccc1=O [Example 12]
16 | < 100 | COc1cc(-c2cc(C(=O)Nc3cncc(Cl)c3OC)ncn2)ccn1 [Example 6]
17 | < 100 | Cn1c(CNC(=O)c2cc(-c3cc(F)cc(Cl)c3)ncn2)nccc1=O [Example 31]
18 | < 100 | COc1cnc(NC(=O)c2cc(-c3cc(F)cc(Cl)c3)ncn2)cn1 [Example 25]
19 | < 100 | Cn1cc(NC(=O)c2cc(-c3cc(F)cc(Cl)c3)ncn2)cnc1=O [Example 35, 6-(3-Chloro-5-fluorophenyl)-N-(1-methyl-2-oxo-1,2-dihydropyrimidin-5-yl)pyrimidine-4-carboxamide]
20 | < 100 | O=C(Nc1ccccc1)c1cc(-c2cccc(Cl)c2)ncn1 [Example 1, 6-(3-Chlorophenyl)-N-phenylpyrimidine-4-carboxamide]

Row | IC50 [nM] | SMILES
21 | < 100 | COc1cc(-c2cc(C(=O)Nc3ccc(=O)n(C)n3)ncn2)ccc1Cl [Example 9]
22 | < 100 | COc1cc(C#N)cc(-c2cc(C(=O)Nc3ccc(=O)[nH]n3)ncn2)c1 [Example 26]
23 | < 100 | COc1cc(F)cc(-c2cc(C(=O)Nc3ccc(=O)n(C)n3)ncn2)c1 [Example 21]
24 | < 100 | COc1cccc(-c2cc(C(=O)Nc3ccc(=O)n(C)n3)ncn2)c1 [Example 4, 6-(3-Methoxyphenyl)-N-(1-methyl-6-oxo-1,6-dihydropyridazin-3-yl)pyrimidine-4-carboxamide]
25 | < 100 | COc1ccc(-c2cc(C(=O)Nc3cnn(C)c(=O)c3)ncn2)cc1Cl [Example 36, 6-(3-Chloro-4-methoxyphenyl)-N-(1-methyl-6-oxo-1,6-dihydropyridazin-4-yl)pyrimidine-4-carboxamide]
26 | < 100 | Cn1ncc(NC(=O)c2cc(-c3cc(F)cc(Cl)c3)ncn2)cc1=O [Example 39]
27 | < 100 | Cn1nc(NC(=O)c2cc(-c3cc(F)cc(Cl)c3)ncn2)ccc1=O [Example 11]
28 | < 100 | Cn1ccnc(NC(=O)c2cc(-c3cc(F)cc(Cl)c3)ncn2)c1=O [Example 24]
29 | < 100 | Cn1cnc(NC(=O)c2cc(-c3cc(F)cc(Cl)c3)ncn2)cc1=O [Example 38]
30 | < 100 | N#Cc1cc(F)cc(-c2cc(C(=O)Nc3ccc(=O)[nH]n3)ncn2)c1 [Example 27]
31 | < 100 | COc1ccc(-c2cc(C(=O)Nc3cc(=O)n(C)cn3)ncn2)cc1Cl [Example 37]
32 | < 100 | COc1cc(-c2cc(C(=O)Nc3ccc(=O)n(C)n3)nc(-c3ccccc3)n2)ccn1 [Example 40, 6-(2-Methoxypyridin-4-yl)-N-(1-methyl-6-oxo-1,6-dihydropyridazin-3-yl)-2-phenylpyrimidine-4-carboxamide]
33 | < 100 | Cn1c(CNC(=O)c2cc(-c3cc(F)cc(C#N)c3)ncn2)nccc1=O [Example 32]
34 | < 100 | COc1ncc(-c2cc(C(=O)Nc3ccc(=O)n(C)n3)ncn2)cc1Cl [Example 17]
35 | < 100 | COc1ncc(-c2cc(C(=O)NCc3nccc(=O)n3C)ncn2)cc1Cl [Example 33, 6-(5-Chloro-6-methoxypyridin-3-yl)-N-((1-methyl-6-oxo-1,6-dihydropyrimidin-2-yl)methyl)pyrimidine-4-carboxamide]
36 | < 100 | COc1cncc(NC(=O)c2cc(-c3ccnc(OC)c3)ncn2)c1 [Example 7]
37 | < 100 | COc1ccc(-c2cc(C(=O)Nc3nccn(C)c3=O)ncn2)cc1Cl [Example 18]
38 | < 100 | Cc1cc(Cl)cc(-c2cc(C(=O)Nc3ccc(=O)n(C)n3)ncn2)c1 [Example 22]
39 | < 100 | Cn1nc(NC(=O)c2cc(-c3cc(F)nc(Cl)c3)ncn2)ccc1=O [Example 23]
40 | < 100 | COc1cc(-c2cc(C(=O)NCc3ncccc3OC)ncn2)ccc1F [Example 15]

— patent US12036292B2, “Heterobiaryl compounds and imaging agents for imaging huntingtin protein” (CHDI Foundation, Inc., priority 2020, dated 2024)
